Results taken from patent US20190216731A1, “PROCESS FOR PROVIDING PARTICLES WITH REDUCED ELECTROSTATIC CHARGES” (Chiesi Farmaceutici S.p.A., priority 2010, published 2019).

Experiments:
[1] = Dispersive surface energy by inverse gas chromatography (IGC); type: physicochemical; conditions: IGC at 25° C., 0% RH, FIG. 1
Description: The surface energies were measured by inverse gas chromatography (IGC). All analyses were carried out using the SMS-iGC 2000 and the SMS-iGC v1.3 standard analysis suite and SMS-iGC v1.21 advanced analysis suite of macros. A flame ionization detector (FID) was used to determine the retention times. The samples were stored in a cold (˜5° C.), dry environment until run on the IGC. For all experiments, the powders were packed into a silanized glass column (300 mm long by 4 mm diameter) using the SMS Column Packing Accessory. All columns were analyzed 3 times sequentially to check for irreversible chemisorption effects and equilibrium after preconditioning.
In this study, the columns were pre-treated for 2 hours at 25° C. and 0% RH in a helium carrier gas to condition the sample. Then, the surface energy measurements were performed at 25° C. (3 times sequentially with a 2-hour conditioning between runs). All experiments were carried out at 10 sccm total flow rate of helium, and injection vapor concentration of 0.03 P/0 for all elutants.

[2] = cited from earlier work

Compound	dispersive surface energy [1] [mJm^−2]	dispersive surface energy, values reported in the literature [2] [mJm^−2]
O.OC[C@H]1O[C@@H](O[C@H]2[C@H](O)[C@@H](O)[C@@H](O)O[C@@H]2CO)[C@H](O)[C@@H](O)[C@H]1O [Meggle D30 reference, α-lactose monohydrate]	41.8	41
magnesium stearate	42.1	41
